Results published in article PMC11927960, “Multiparameter ranking of carbazoles for anti-trypanosome lead discovery” (Frontiers in drug discovery, 2024).

Columns and labels:
[1] = test system: protein synthesis in Trypanosoma brucei; assay: Protein synthesis (HPG incorporation); assay type: cell-based; details: for Protein Synthesis affected: DTC50 as printed in Table S3; for Effect on protein synthesis: DTC90; for Residual Translation: DTC90 of curaxin 15 min, then 60 min HPG, 1 minus inhibition vs DMSO
Procedure: FIGURE 3 Effect of curaxins on protein synthesis in Trypanosoma brucei: T. b. brucei (5 × 10^5/mL) was treated with DMSO (D: 0.1%), DTC90 of CBL0174 ([…]), or CBL0187 (600 nM) for 15 min, followed by 60-min incubation with L-Homopropargylglycine (HPG; 4 μM). Incorporated HPG was clicked to azide-Alexa Fluor-488. […] (A) Proteins were transferred to the PVDF membrane and stained for total protein (using LI-COR® Revert™ 700 Total Protein Stain). (B) The membrane was blocked with Intercept® (PBS) blocking buffer and reacted with azide-PEG3-biotin conjugate that was detected with Streptavidin IRDye® 800CW (1: 2500 dilution). (C) Quantitation of HPG signal normalized to total protein loaded per lane. Statistical significance of differences in mean total HPG incorporation (normalized to total protein) was determined with Student’s t-test.
Mid-logarithmic phase trypanosomes were rinsed and resuspended (5×10^5 cells/mL) in methionine-free RPMI supplemented with 10% fetal bovine serum (FBS). Cells were treated with DTC25 or DTC90 concentrations of CBL0174 or CBL0187 for 15 min, followed by 1-h incubation with 4 μM (final concentration) L-Homopropargylglycine (HPG) (Cayman Chemical). Cells were washed with PBS-G (PBS containing 10 mM glucose), pelleted, and resuspended (~5 × 10^6 cells) in 50 μL of permeabilization buffer (50 mM HEPES pH 7.4, 0.025% NP-40) on ice for 30 min. The pellet was mixed with 50 μL “Click-iT reaction” cocktail (20 mM Tris buffer, pH 7.4, 5 mM CuSO4, 300 mM ascorbic acid, 140 mM NaCl, and 17.5 μM azide-PEG-biotin) at room temperature for 1 h. […] HPG-labeled proteins were detected with Streptavidin IRDye® 800CW (1: 2500) and visualized on a Li-Cor® Odyssey CLx near-infrared fluorescence imaging system ([Sanz-Rodriguez et al., 2022]).

[2] = in vivo; details: both sexes, mouse, oral, Swiss Webster mice, 10 consecutive days, read-out: Repeated maximum tolerated dose (rMTD)
Procedure: Maximum tolerated dose of compounds in mice.
To determine a single maximum tolerated dose (sMTD), male and female Swiss Webster mice were first given a single 50 mg/kg dose of compound formulated in N-methyl-2-pyrrolidone (10% v/v) and 0.2% hydroxypropyl methylcellulose (90% v/v). Mice were monitored daily for up to 7 days post-administration for overall condition using a Total Condition Scoring (TCS) system (Supplementary Table S1) and body weight changes. If greater than 20% body weight loss was recorded, the dose was lowered in two-fold amounts in subsequent tests. […] When no toxicity was observed, sMTD values were utilized to determine the repetitive maximum tolerated dose (rMTD). Male and female Swiss-Webster mice were treated with sMTD for 10 consecutive days. […] If adverse effects were recorded, the daily doses were reduced two-fold in follow-up work. At the end of the study, mice were euthanized by CO2 asphyxiation followed by cervical dislocation.

[3] = test system: T. brucei Lister427; assay: Delayed trypanocidal assay (6 h exposure, wash-off); assay type: cell-based, Trypanosoma brucei; details: for DTC25 (Figure 1) / DTC50 (Figure 1) / DTC90 (Figure 1): 5 × 10^5/mL, 6 h, wash, 24 h drug-free, unit not given; for DTC50 (concentration causing 50% cidality): 6-h treatment and wash-off
Procedure: Trypanosomes were washed, enumerated with a Coulter Counter, and transferred into a drug-free HMI-9 medium for 24 h in a 24-well plate (1 × 10^5 cells/mL). After 24 h, cells were enumerated with a Coulter counter (see flow-chart). Data obtained were analyzed using GraphPad Prism to determine DTC25, DTC50, and DTC90 values.
Delayed trypanocidal assay
Mid-logarithmic growth-phase T. b. Lister427 were inoculated into HMI-9 medium (5 × 10^5 cell/mL). Cells were incubated with either 0.1% DMSO (vehicle) or serial dilutions of drug in 24-well plates for 6 h at 37 °C/5% CO2, following which trypanosomes were pelleted (3,000 g, 5 min), rinsed with drug-free HMI-9 medium, and cells enumerated with a Coulter counter. Trypanosomes were then inoculated at 1 × 10^5 cells/mL in 24-well-plates or 384-well plates and cultured for 24 h, after which trypanosomes were checked for viability with a hemocytometer and enumerated with a Coulter counter. Each experiment was performed thrice, and non-linear regression graphs plotted with GraphPad Prism were used to obtain DTC50 values ([Bachovchin et al., 2019]).

[4] = test system: T. brucei Lister 427; assay: Effect of 50% serum on curaxin inhibition of trypanosome proliferation; assay type: cell-based, Trypanosoma brucei; details: 20, 35 or 50% FBS; Figure S3
Procedure: HMI-9 medium ([Hirumi and Hirumi, 1989]) was prepared with different final concentrations of fetal bovine serum (FBS) (20, 35, and 50%). T. brucei Lister 427 was cultured in each medium for at least 7 days. […] EC50 measurements were obtained from three independent experiments in each medium.
containing 20%, 35% or 50% FBS
At 0 h, 4x103 trypanosomes/ml in
media with drug; 37°C, 5% CO2
Cells lysed and SYBR green
Hirumi, 1989) was modified to contain 20, 35, or 50% fetal bovine serum (FBS) (total
concentration). T. b. brucei Lister 427 was first cultured in the medium for 7 days.
(50 µL). Plates were incubated for 48 h at 37 °C and 5% CO2, and the proliferation of
trypanosomes was measured using a SYBR green assay (Faria et al., 2015). Each experiment
was performed thrice, and non-linear regression fits to the data were obtained using GraphPad
Prism which was used to calculate EC50 values. The possible statistical significance of the
FBS-medium (control) was determined by Student’s T-test.

[5] = 6 h treatment at 5 × 10^5/mL, wash-off, survival tracked 24 h

Structure (SMILES)	Protein Synthesis affected [1]	Effect on protein synthesis [1]	Residual Translation [1]	MTD at 10 days [2]	DTC25 (Figure 1) [3]	DTC50 (Figure 1) [3]	DTC90 (Figure 1) [3]	DTC50 (concentration causing 50% cidality) [3]	DTC50 T. brucei Lister427 [3, 5]	DTC90 T. brucei Lister427 [3, 5]	Effect of serum on anti-trypanosome potency [4]	DTC25 T. brucei Lister427 [3, 5]
CC(=O)c1cc2c3cc(C(C)=O)c(O)cc3n(CCCN(C)C)c2cc1O [CBL0174, 1-[6-acetyl-9-[3-(dimethylamino)propyl]-2,7-dihydroxy-carbazol-3-yl]ethanone]	No	did not prevent mRNA translation	0.94	60 mg/kg	48	110	600	0.11 µM	110 nM	600 nM	–	–
CC(=O)c1cc2c3cc(C(C)=O)c(O)cc3n(CCNC(C)C)c2cc1O [CBL0187, 1-[6-acetyl-2,7-dihydroxy-9-[2-(isopropylamino)ethyl]carbazol-3-yl]ethanone]	No	inhibited protein synthesis	0.72	50 mg/kg	54	110	550	0.11 µM	110 nM	550 nM	decreases	54 nM
